Measurements: ChEMBL document CHEMBL6114985, “From Dyrk1A inhibitors to a novel class of antiviral agents: Targeting Enterovirus EV-A71 with 2-aryl-substituted thiophene scaffolds” (Eur J Med Chem, 2025)

Assays:
[1] = system: Enterovirus A71; assay: Antiviral activity against Enterovirus A71 TW/2231/98 infected in human RD cells assessed as reduction in cytopathic effect incubated for 3 days; format: functional, organism-based; details: Enterovirus A, TW/2231/98, RD, 72 h
[2] = Cytotoxicity against human RD cells assessed as reduction in cell growth incubated for 3 days by MTT assay; format: toxicity, cell-based; details: time 3 day
[3] = Selectivity index, ratio of CC50 for human RD cells to EC50 for antiviral activity against enterovirus A71 TW/2231/98 infected in human RD cells; format: toxicity, cell-based; details: read-out: Ratio CC50/EC50
[4] = molecular target: Dual specificity tyrosine-phosphorylation-regulated kinase 1A (Homo sapiens, UniProt Q13627); assay: Inhibition of DYRK1A (unknown origin) at 25 uM incubated for 1 hr relative to control
[5] = Cytotoxicity against human A549 cells infected with Human adenovirus; format: toxicity, cell-based
[6] = Cytotoxicity against human A549 cells infected with Herpes Simplexvirus; format: toxicity, cell-based; details: A549 cells infected with herpes simplex virus
[7] = system: Enterovirus A71; assay: Antiviral activity against Enterovirus A71 TW/2231/98 infected in human RD cells assessed as inhibition of viral plaque formation at 45 uM incubated for 3 to 5 days by crystal violet staining based plaque reduction assay relative to control; format: functional; details: Enterovirus A, TW/2231/98, RD, time 3-5 day
[8] = system: Human adenovirus sp.; assay: microbe, parasite or virus in culture; details: A549
[9] = system: Herpes Simplexvirus; assay: microbe, parasite or virus in culture; details: A549
[10] = system: Enterovirus A71; assay: Antiviral activity against Enterovirus A71 2231 assessed as reduction in viral replication; format: functional, organism-based; details: Enterovirus A
[11] = system: Enterovirus A71; assay: Antiviral activity against Enterovirus A71 4798 assessed as reduction in viral replication; format: functional, organism-based; details: Enterovirus A
[12] = system: enterovirus D68; assay: Antiviral activity against Enterovirus D68 2795 assessed as reduction in viral replication; format: functional, organism-based; details: Enterovirus D
[13] = system: enterovirus D68; assay: Antiviral activity against Enterovirus D68 KY 18953 assessed as reduction in viral replication; format: functional, organism-based; details: Enterovirus D
[14] = system: Coxsackievirus; assay: Antiviral activity against Coxsackievirus assessed as reduction in viral replication; format: functional, organism-based
[15] = system: Human rhinovirus sp.; assay: Antiviral activity against Human rhinovirus 71803 assessed as reduction in viral replication; format: functional, organism-based
[16] = system: Influenza A virus; assay: Antiviral activity against influenza A virus assessed as reduction in viral replication; format: functional, organism-based
[17] = Lipophilicity, logD of compound by UPLC-MS analysis; format: physicochemical; details: octanol/water
[18] = Metabolic stability in mouse liver microsome assessed as half life incubated for 120 mins by HPLC-MS/MS; format: ADME; details: liver microsomes
[19] = Metabolic stability in mouse liver microsome assessed as intrinsic clearance incubated for 120 mins by HPLC-MS/MS; format: ADME; details: liver microsomes, read-out: CLH
[20] = Metabolic stability in human liver microsome assessed as half life incubated for 120 mins by HPLC-MS/MS; format: ADME; details: liver microsomes
[21] = Metabolic stability in human liver microsome assessed as intrinsic clearance incubated for 120 mins by HPLC-MS/MS; format: ADME; details: liver microsomes, read-out: CLH
[22] = Stability in mouse plasma assessed as half life by HPLC-MS/MS; format: ADME, cell-free
[23] = Stability in human plasma assessed as half life by HPLC-MS/MS; format: ADME, cell-free
[24] = Plasma protein binding in mouse by rapid equilibrium dialysis based HPLC-MS/MS analysis; format: ADME, cell-free; details: read-out: PPB (converted)
[25] = Plasma protein binding in human by rapid equilibrium dialysis based HPLC-MS/MS analysis; format: ADME, cell-free; details: read-out: PPB (converted)

| Structure (SMILES) | EC50 [1] | CC50 at 72 h [2] | selectivity ratio [3] | also measured |
| --- | --- | --- | --- | --- |
| COc1ccc(Cl)c(C(=O)Nc2cncc(-c3cc(-c4cccnc4)cs3)c2)c1F | 5.7 µM | > 100 µM | > 17.5 | inhibition [4]: 95% |
| COc1ccc(F)c(C(=O)Nc2cncc(-c3cccs3)n2)c1 | > 10 µM |  |  |  |
| COc1ccc(F)c(C(=O)Nc2cncc(-c3cc(-c4cccnc4F)cs3)c2)c1 | 8.7 µM | > 100 µM | > 11.5 |  |
| COc1cccc(C(=O)Nc2cncc(-c3cc(Br)cs3)c2)c1F | 8.9 µM |  |  |  |
| COc1ccc2c(c1)[nH]c1c(C)nccc12 [HARMINE] |  |  |  | CC50 [5]: > 20 µM; CC50 [6]: > 20 µM; inhibition at 45 µM [7]: 40%; EC50 [8]: 5.7 µM; EC50 [9]: 3.3 µM |
| COc1cccc(C(=O)Nc2cncc(-c3cccs3)c2)c1F | 4.7 µM | 52.8 µM | 11.2 |  |
| COc1ccc(F)c(C(=O)Nc2cncc(-c3cc(-c4cccnc4C)cs3)c2)c1 | 9.1 µM | 15.6 µM | 1.7 |  |
| O=C(Nc1cncc(-c2cccs2)c1)c1c(F)cc(F)cc1F | 5.4 µM | 45.3 µM | 8.4 | EC50 [10]: 5.4 µM; EC50 [11]: 7.3 µM; EC50 [12]: 5 µM; EC50 [13]: 5.4 µM; EC50 [14]: 9.9 µM; EC50 [15]: 7.5 µM; EC50 [16]: > 10 µM |
| COc1ccc(F)c(C(=O)Nc2cncc(-c3cncs3)c2)c1 | > 10 µM |  |  |  |
| COc1ccc(F)c(C(=O)Nc2cncc(-c3cn(-c4cccnc4)nn3)c2)c1 | > 10 µM |  |  |  |
| COc1ccc(F)c(C(=O)Nc2cncc(-c3cc(-c4cccnc4)cs3)c2)c1F | 2.6 µM | 20 µM | 7.7 | inhibition [4]: 81% |
| COc1ccc(F)c(C(=O)Nc2cncc(-c3cc(-c4cnccc4C)cs3)c2)c1 | 9.1 µM | 18.1 µM | 2 |  |
| COc1cc(OC)cc(C(=O)Nc2cncc(-c3cc(-c4cccnc4)cs3)c2)c1 | > 10 µM |  |  |  |
| COc1ccc(C(=O)Nc2cncc(-c3cc(-c4cccnc4)cs3)c2)cc1F | > 10 µM |  |  |  |
| CC(C)(C)Oc1ccc(C(=O)Nc2cncc(-c3cc(-c4cccnc4)cs3)c2)cc1 | > 10 µM |  |  |  |
| COc1cc(C(=O)Nc2cncc(-c3cccs3)c2)ccc1C | > 10 µM |  |  |  |
| COc1cccc(C(=O)Nc2cncc(-c3cc(-c4cccnc4)cs3)c2)c1F | 7.2 µM | 21.3 µM | 3 |  |
| COc1ccc(C(=O)Nc2cncc(-c3cc(-c4cccnc4)cs3)c2)c(F)c1 | > 10 µM |  |  |  |
| COc1ccc(F)c(C(=O)Nc2cncc(-c3cccs3)c2)c1 | 4.3 µM | 75.7 µM | 17.6 | inhibition [4]: 0%; logD [17]: 3.52; half-life [18]: 11 min; microsomal CLint [19]: 127 µL/min/mg; half-life [20]: 31.5 min; microsomal CLint [21]: 44 µL/min/mg; half-life [22]: > 240 min; half-life [23]: > 240 min; fraction unbound [24]: 0.038; fraction unbound [25]: 0.0165; EC50 [10]: 4.3 µM; EC50 [11]: 5.5 µM; EC50 [12]: 3.6 µM; EC50 [13]: 3.5 µM; EC50 [14]: 3.9 µM; EC50 [15]: 4.8 µM; EC50 [16]: > 10 µM |
| COc1ccc(F)c(C(=O)Nc2cncc(-c3cc(-c4cccnc4)cs3)c2)c1Cl | 5.2 µM | > 100 µM | > 19.2 | inhibition [4]: 93%; logD [17]: 3.22; half-life [18]: 10 min; microsomal CLint [19]: 137 µL/min/mg; half-life [20]: 25 min; microsomal CLint [21]: 56 µL/min/mg; half-life [22]: > 240 min; half-life [23]: > 240 min; fraction unbound [25]: 0.0029; EC50 [10]: 5.2 µM; EC50 [11]: 4 µM; EC50 [12]: 5.1 µM; EC50 [13]: 3.7 µM; EC50 [14]: > 10 µM; EC50 [15]: 6.9 µM |
| CCOC(=O)c1ccc(OCCC2CCN(c3ccc(C)nn3)CC2)cc1 [PIRODAVIR] | 0.6 µM | > 10 µM | > 16.7 |  |
| COc1ccc(F)c(C(=O)Nc2cncc(-c3cc(-c4ccncc4)cs3)c2)c1 | > 10 µM |  |  |  |

| Structure (SMILES) | EC50 [1] | CC50 at 72 h [2] | selectivity ratio [3] | also measured |
| --- | --- | --- | --- | --- |
| O=C(Nc1cncc(-c2cc(-c3cccnc3)cs2)c1)c1ccc(O)cc1 | > 10 µM | > 10 µM |  |  |
| COc1cc(C(=O)Nc2cncc(-c3cc(-c4cccnc4)cs3)c2)ccc1F | > 10 µM |  |  |  |
| COc1ccc(F)c(C(=O)N(C)c2cncc(-c3cc(-c4cccnc4)cs3)c2)c1 | > 10 µM |  |  |  |
| COc1ccc(F)c(CNc2cncc(-c3cccs3)c2)c1 | > 10 µM |  |  |  |
| COc1ccc(F)c(C(=O)Nc2cccc(-c3cccs3)n2)c1 | > 10 µM |  |  |  |
| COc1ccc(C(=O)Nc2cncc(-c3cc(-c4cccnc4)cs3)c2)cc1OC | > 10 µM |  |  |  |
| COc1cc(C(=O)Nc2cncc(-c3cc(Br)cs3)c2)ccc1C | > 10 µM |  |  |  |
| COc1ccc(F)c(C(=O)Nc2cncc(-c3cc(-c4cn[nH]c4)cs3)c2)c1 | 5.4 µM | 19.6 µM | 3.6 |  |
| COc1ccc(F)c(S(=O)(=O)Nc2cncc(-c3cccs3)c2)c1 | > 10 µM |  |  |  |
| COc1ccc(F)c(C(=O)Nc2cncc(-c3cc(-c4ccccc4)cs3)c2)c1 | > 10 µM |  |  |  |
| COc1cc(C(=O)Nc2cncc(-c3cc(-c4cccnc4)cs3)c2)ccc1C | > 10 µM |  |  |  |
| O=C(Nc1cncc(-c2cc(-c3cccnc3)cs2)c1)c1ccc(OC(F)(F)F)cc1 | > 10 µM |  |  |  |
| COc1ccc(Cl)c(C(=O)Nc2cncc(-c3cc(-c4cccnc4)cs3)c2)c1 | > 10 µM |  |  |  |
| COc1ccc(F)c(C(=O)Nc2cc(-c3cccs3)ccn2)c1 | 2.4 µM | 33.5 µM | 14 | inhibition [4]: 4% |
| COc1ccc(F)c(C(=O)Nc2cncc(-c3ncns3)c2)c1 | > 10 µM |  |  |  |
| COc1ccc(F)c(C(=O)Nc2cncc(-c3nccs3)c2)c1 | > 10 µM |  |  |  |
| COc1ccc(F)c(C(=O)Nc2cncc(-c3ccccc3)c2)c1 | > 10 µM |  |  |  |
| COc1ccc(F)c(C(=O)Nc2cncc(-c3cc4ccccc4s3)c2)c1 | 8.7 µM | 47.3 µM | 5.4 |  |
| COc1ccc(F)c(C(=O)Nc2ccnc(-c3cccs3)c2)c1 | > 10 µM |  |  |  |
| COc1ccc(F)c(C(=O)Nc2cncc(-c3cccnc3)c2)c1 | > 10 µM |  |  |  |
| COc1c(F)ccc(C(=O)Nc2cncc(-c3cc(-c4cccnc4)cs3)c2)c1F | > 10 µM |  |  |  |
